# Reference: patent publication US10195185B2, “3-(1H-imidazo[4,5-C]pyridin-2-yl)-1H-pyrazolo[4,3-B]pyridines and therapeutic uses thereof” (Samumed, LLC, priority 2015, dated 2019)
# Legend:
# Format in all cases: cell-based
# [1] = system: Wnt activity (Wnt-responsive human Sp5 promoter, TCF/LEF binding sites) in SW480 colon carcinoma cells; assay: Wnt activity screening assay: Sp5-Luc luciferase reporter gene in SW480 cells; conditions: for EC50: 10-point dose-response from 10 μM, incubated overnight; for inhibition at 10 µM: given for EC50 of >10 μM, read-out: percent inhibition at 10 μM
# Procedure, shortened: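 SW480 cells stably transduced with an Sp5 promoter (eight TCF/LEF sites)–firefly luciferase lentiviral reporter, plated at 4,000 cells/well in 1% FBS medium with compounds (10-point 1:3 series from 10 μM, 0.1% DMSO) overnight at 37 °C. BrightGlo luminescence normalised to DMSO; EC50 by four-parameter fit, else % inhibition at 10 μM.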
# SW480 colon cancer cells = assay: Cell viability assay (CellTiter-Blue), four days; conditions: Homo sapiens, 96 h; for EC50: CellTiter-Blue cell viability; for inhibition at 10 µM: read-out: percent inhibition at 10 μM (given for EC50 of >10 μM)
# Procedure, shortened: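 SW480 cells (~2×10^3 per well) were exposed to compound for four days at 37 °C/5% CO2, using 8-point 1:3 dilutions from 10 μM to 0.0045 μM in duplicate. Viability was read by resazurin reduction (CellTiter-Blue, ~3 h, Ex 560/Em 590 nm). EC50 came from non-linear regression; above 10 μM, percent inhibition at 10 μM is given.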
# [2] = system: Primary human fibroblasts derived from IPF patients (LL29 cells) treated with TGF-β1; assay: Inhibition of the fibrotic process: αSMA staining in TGF-β1 treated fibroblasts; conditions: Fibroblast, 96 h, LL29 fibroblasts treated with TGF-β1, 4 days; for inhibition at 10 µM: read-out: percent inhibition in brackets beside EC50 >10 μM
# Procedure, shortened: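 LL29 cells plated in F12 with 1% FBS, compounds added as 11-point 1:2 series (10 μM to 1.87 nM, 0.1% DMSO), then TGF-β1 20 ng/mL; 4 days at 37 °C. Fixed, αSMA immunostained, imaged; SYTOX-positive cells excluded. % αSMA-positive cells normalized to TGF-β1 wells; EC50 by non-linear regression, or % inhibition at 10 μM.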
SMILES,EC50 [1],EC50 (SW480 colon cancer cells),inhibition at 10 µM [1],EC50 [2],inhibition at 10 µM [2],inhibition at 10 µM (SW480 colon cancer cells)
"c1cc2[nH]c(-c3n[nH]c4ccc(-c5cncc(OCCN6CCCC6)c5)nc34)nc2c(N2CCCCC2)n1 [Compound 610, 3-(4-(Piperidin-1-yl)-1H-imidazo[4,5-c]pyridin-2-yl)-5-(5-(2-(pyrrolidin-1-yl)ethoxy)pyridin-3-yl)-1H-pyrazolo[4,3-b]pyridine]",> 10 µM,9.87 µM,46.2%,> 10 µM,0%,–
"Fc1cccc(-c2nccc3[nH]c(-c4n[nH]c5ccc(-c6cn[nH]c6)nc45)nc23)c1 [Compound 507, 3-(4-(3-Fluorophenyl)-1H-imidazo[4,5-c]pyridin-2-yl)-5-(1H-pyrazol-4-yl)-1H-pyrazolo[4,3-b]pyridine]",> 10 µM,> 10 µM,15%,> 10 µM,9.9%,–
"NC1CN(c2cncc(-c3ccc4[nH]nc(-c5nc6c(-c7cccc(F)c7)nccc6[nH]5)c4n3)n2)C1 [Compound 510, 1-(6-(3-(4-(3-Fluorophenyl)-1H-imidazo[4,5-c]pyridin-2-yl)-1H-pyrazolo [4,3-b]pyridin-5-yl)pyrazin-2-yl)azetidin-3-amine]",> 10 µM,9.29 µM,16.3%,> 10 µM,10.3%,–
"Fc1cccc(-c2nccc3[nH]c(-c4n[nH]c5ccc(C6=CCNCC6)nc45)nc23)c1 [Compound 506, 3-(4-(3-Fluorophenyl)-1H-imidazo[4,5-c]pyridin-2-yl)-5-(1,2,3,6-tetrahydropyridin-4-yl)-1H-pyrazolo[4,3-b]pyridine]",> 10 µM,> 10 µM,17.6%,1.17 µM,–,0%
"O=C(CC1CCNCC1)Nc1cncc(-c2ccc3[nH]nc(-c4nc5c(-c6ccccn6)nccc5[nH]4)c3n2)c1 [Compound 593, 2-(Piperidin-4-yl)-N-(5-(3-(4-(pyri-2-yl)-1H-imidazo[4,5-c]pyridin-2-yl)-1H-pyrazolo[4,3-b]pyridin-5-yl)pyridin-3-yl)acetamide]",> 10 µM,> 10 µM,31.4%,1.57 µM,–,9.1%
"c1cc(-c2nccc3[nH]c(-c4n[nH]c5ccc(-c6cnccn6)nc45)nc23)ccn1 [Compound 584, 5-(Pyrazin-2-yl)-3-(4-(pyridin-4-yl)-1H-imidazo[4,5-c]pyridin-2-yl)-1H-pyrazolo[4,3-b]pyridine]",> 10 µM,> 10 µM,5.7%,> 10 µM,0%,2.1%
"Cc1cn(-c2nccc3[nH]c(-c4n[nH]c5ccc(-c6cncc(OCCN(C)C)c6)nc45)nc23)cn1 [Compound 627, N,N-Dimethyl-2-((5-(3-(4-(4-methyl-1H-imidazol-1-yl)-1H-imidazo[4,5-c]pyridin-2-yl)-1H-pyrazolo[4,3-b]pyridin-5-yl)pyridin-3-yl)oxy)ethan-1-amine]",> 10 µM,> 10 µM,11.8%,4.37 µM,–,8.2%
"CS(=O)(=O)NCc1cc(F)cc(-c2nccc3[nH]c(-c4n[nH]c5ccc(-c6cncc(NC(=O)c7ccccc7)c6)nc45)nc23)c1 [Compound 487, N-(5-(3-(4-(3-Fluoro-5-(methylsulfonamidomethyl)phenyl)-1H-imidazo[4,5-c]pyridin-2-yl)-1H-pyrazolo[4,3-b]pyridin-5-yl)pyridin-3-yl)benzamide]",> 10 µM,> 10 µM,0%,> 10 µM,0%,0%
"c1ccc(COc2cncc(-c3ccc4[nH]nc(-c5nc6c(-c7ccncc7)nccc6[nH]5)c4n3)c2)cc1 [Compound 582, 5-(5-(Benzyloxy)pyridin-3-yl)-3-(4-(pyridin-4-yl)-1H-imidazo[4,5-c]pyridin-2-yl)-1H-pyrazolo[4,3-b]pyridine]",> 10 µM,> 10 µM,18.1%,> 10 µM,0%,10.9%
"CCNCc1cncc(-c2ccc3[nH]nc(-c4nc5c(-c6cc(F)cc(NCCN(C)C)c6)nccc5[nH]4)c3n2)c1 [Compound 454, N^1-(3-(2-(5-(5-((Ethylamino)methyl)pyridin-3-yl)-1H-pyrazolo[4,3-b]pyridin-3-yl)-1H-imidazo[4,5-c]pyridin-4-yl)-5-fluorophenyl)-N^2,N^2-dimethylethane-1,2-diamine]",9.95 µM,6.6 µM,–,3.68 µM,–,–

# The next compounds have a lower EC50 [1] than those just listed; values first:
EC50 [1],EC50 (SW480 colon cancer cells),SMILES,inhibition at 10 µM [1],EC50 [2],inhibition at 10 µM [2],inhibition at 10 µM (SW480 colon cancer cells)
8.02 µM,1.27 µM,"CN(C)Cc1cncc(-c2ccc3[nH]nc(-c4nc5c(-c6cccs6)nccc5[nH]4)c3n2)c1 [Compound 349, N,N-dimethyl-1-(5-(3-(4-(thiophen-2-yl)-1H-imidazo[4,5-c]pyridin-2-yl)-1H-pyrazolo[4,3-b]pyridin-5-yl)pyridin-3-yl)methanamine]",–,2.63 µM,–,–
2.45 µM,3.43 µM,"Fc1cccc(-c2nccc3[nH]c(-c4n[nH]c5ccc(-c6cncc(OCCN7CCCC7)c6)nc45)nc23)c1 [Compound 514, 3-(4-(3-Fluorophenyl)-1H-imidazo[4,5-c]pyridin-2-yl)-5-(5-(2-(pyrrolidin-1-yl)ethoxy)pyridin-3-yl)-1H-pyrazolo[4,3-b]pyridine]",–,1.79 µM,–,–
2.37 µM,7.14 µM,"Cc1ccncc1-c1ccc2[nH]nc(-c3nc4c(-c5cc(F)cc(CNS(C)(=O)=O)c5)nccc4[nH]3)c2n1 [Compound 481, N-(3-Fluoro-5-(2-(5-(4-methylpyridin-3-yl)-1H-pyrazolo[4,3-b]pyridin-3-yl)-1H-imidazo[4,5-c]pyridin-4-yl)benzyl)methanesulfonamide]",–,5 µM,–,–
0.843 µM,2.78 µM,"Fc1cccc(-c2nccc3[nH]c(-c4n[nH]c5ccc(-c6ccncc6)nc45)nc23)c1 [Compound 18, 3-(4-(3-Fluorophenyl)-1H-imidazo[4,5-c]pyridin-2-yl)-5-(pyridin-4-yl)-1H-pyrazolo[4,3-b]pyridine]",–,4.21 µM,–,–
0.523 µM,> 10 µM,"Oc1cncc(-c2ccc3[nH]nc(-c4nc5c(-c6cccc(F)c6)nccc5[nH]4)c3n2)c1 [Compound 517, 5-(3-(4-(3-Fluorophenyl)-1H-imidazo[4,5-c]pyridin-2-yl)-1H-pyrazolo[4,3-b]pyridin-5-yl)pyridin-3-ol]",–,1.56 µM,–,3.5%
0.379 µM,0.944 µM,CN(C)c1cncc(-c2ccc3[nH]nc(-c4nc5c(-c6cccc(F)c6)nccc5[nH]4)c3n2)c1 [Compound 7],–,0.387 µM,–,–
0.05 µM,0.156 µM,"Cc1ccc(-c2nccc3[nH]c(-c4n[nH]c5ccc(-c6cncc(N)c6)nc45)nc23)s1 [Compound 395, 5-(3-(4-(5-Methylthiophen-2-yl)-1H-imidazo[4,5-c]pyridin-2-yl)-1H-pyrazolo[4,3-b]pyridin-5-yl)pyridin-3-amine]",–,5.07 µM,–,–
